This is an account of results in patent US20260200919A1, “SUBSTITUTED AMINOPYRIDINE COMPOUNDS AND METHODS OF TREATING DISEASE USING SAME” (Atavistik Bio, Inc., priority 2023, published 2026).

In test [1] the target is T1, human recombinant kinase full-length AKT1 E17K (Homo sapiens, UniProt P31749, E17K).
T1 construct: Purified human recombinant kinase full-length AKT1 E17K was expressed in insect cells; made in house; host or cells: insect cells
The test is described as follows: AKT1 E17K kinase assay (TR-FRET, Lance). It counts as biochemical. Conditions: 0.6 nM AKT1 E17K, 50 nM Ulight-CREBtide, either 50 μM ATP or 2 mM ATP (not specified which), 60 min at RT. In a few lines: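 Full-length human AKT1 E17K (insect cell-expressed, PDPK1-activated; 0.6 nM) with 50 nM ULight-CREBtide in HEPES pH 7.5 with MgCl2 and DTT. ATP at 50 μM or 2 mM, 1% DMSO, 10-point dose response, 60 min at RT.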
(In TR-FRET formats the signal depends on donor and acceptor labels being close together.)

The target of test [2] is T2, human recombinant kinase full-length wildtype AKT1 (Homo sapiens, UniProt P31749).
T2 construct: Purified human recombinant kinase full-length wildtype AKT1 was expressed in insect cells; made in house; host or cells: insect cells
T2 sequence (P31749 whole entry): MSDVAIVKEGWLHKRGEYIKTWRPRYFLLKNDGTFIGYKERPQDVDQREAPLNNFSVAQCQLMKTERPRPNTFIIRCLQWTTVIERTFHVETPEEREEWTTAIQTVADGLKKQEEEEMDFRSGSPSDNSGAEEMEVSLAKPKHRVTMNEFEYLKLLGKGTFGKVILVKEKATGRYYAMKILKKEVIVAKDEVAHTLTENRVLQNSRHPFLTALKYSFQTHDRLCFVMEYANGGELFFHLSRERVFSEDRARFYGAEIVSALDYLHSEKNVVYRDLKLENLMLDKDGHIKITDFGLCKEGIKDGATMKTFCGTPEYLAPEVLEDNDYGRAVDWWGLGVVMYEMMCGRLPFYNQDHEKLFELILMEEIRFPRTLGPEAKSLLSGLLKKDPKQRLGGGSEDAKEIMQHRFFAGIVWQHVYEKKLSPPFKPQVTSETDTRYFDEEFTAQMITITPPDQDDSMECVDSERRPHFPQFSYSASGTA
The test is described as follows: AKT1 kinase assay (wildtype, TR-FRET, Lance). The class given is biochemical. Conditions: 0.6 nM wildtype AKT1, 50 nM Ulight-CREBtide, either 50 μM ATP or 2 mM ATP (not specified which), 60 min at RT. A digest of the protocol:
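Insect-cell-expressed AKT1, activated in vitro by PDPK1, was used at 0.6 nM with 50 nM Ulight-CREBtide and 50 μM or 2 mM ATP in 50 mM HEPES pH 7.5, 1% DMSO, over a 10-point dose response.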

T1 sequence (P31749 whole entry E17K): as the sequence (P31749 whole entry) above, with E17K counted along it

What is called IC50 is the concentration at which inhibition is half-maximal. As to `Cc1cc(C(=O)O)ccc1C(=O)Nc1ccc(-n2c(-c3cccnc3N)nc3ccc(-c4ccccc4)nc32)cc1F` [Compound 66, 4-((4-(2-(2-aminopyridin-3-yl)-5-phenyl-3H-imidazo[4,5-b]pyridin-3-yl)-2-fluorophenyl)carbamoyl)-3-methylbenzoic acid], the half-inhibitory concentration (IC50) was 200 to 500 nM in test [1] and above 500 nM in test [2].
In the case of `Cc1cc(C(=O)Nc2ccc(-n3c(-c4cccnc4N)nc4ccc(-c5ccccc5)nc43)cn2)c(F)cc1C(=O)O` [Compound 145], the results for the 50% inhibitory concentration (IC50) in test [1] and in test [2] were 50 to 200 nM and below 500 nM, respectively.
In the same order, the values of `Nc1ncccc1-c1nc2ccc(-c3ccccc3)nc2n1-c1ccc(C2CN(C(=O)c3ccc(C(=O)O)cc3F)C2)cc1` [Compound 76, 4-(3-(4-(2-(2-aminopyridin-3-yl)-5-phenyl-3H-imidazo[4,5-b]pyridin-3-yl)phenyl)azetidine-1-carbonyl)-3-fluorobenzoic acid] are below 50 nM and below 500 nM.
For `Nc1ncccc1-c1nc2ccc(-c3ccccc3)nc2n1-c1ccc(C2CN(Cc3cccc(CC(=O)O)c3)C2)cc1` [Compound 79, 2-(3-((3-(4-(2-(2-aminopyridin-3-yl)-5-phenyl-3H-imidazo[4,5-b]pyridin-3-yl)phenyl)azetidin-1-yl)methyl)phenyl) acetic acid], in that order: 200 to 500 nM and below 500 nM.
In the same order, the values of `COC(=O)Cc1ccc(C(=O)NCc2ccc(-n3c(-c4cccnc4N)nc4cc(-c5cccnc5)cnc43)cc2)cc1` [Compound 87, methyl 2-(4-((4-(2-(2-aminopyridin-3-yl)-6-(pyridin-3-yl)-3H-imidazo[4,5-b]pyridin-3-yl)benzyl)carbamoyl)phenyl)acetate] are above 500 nM and below 500 nM.
Consider `Nc1ncccc1-c1nc2ccc(-c3ccccc3)nc2n1-c1ccc(CNC(=O)c2ccc(CC(=O)O)cc2)cc1` [Compound 30, 2-(4-((4-(2-(2-aminopyridin-3-yl)-5-phenyl-3H-imidazo[4,5-b]pyridin-3-yl)benzyl)carbamoyl)phenyl)acetic acid], for which the 50% inhibitory concentration (IC50) is 50 to 200 nM in test [1] and below 500 nM in test [2].
In the same order, the values of `Nc1ncccc1-c1nc2ccc(-c3ccccc3)nc2n1-c1ccc(CNC(=O)c2cc(F)cc(C(=O)O)c2)cc1` [Compound 21, 3-((4-(2-(2-aminopyridin-3-yl)-5-phenyl-3H-imidazo[4,5-b]pyridin-3-yl)benzyl)carbamoyl)-5-fluorobenzoic acid] are below 50 nM and below 500 nM.
In the case of `CC(C)[C@H](c1ccc(C(=O)O)cc1)N1CC(c2ccc(-n3c(-c4cccnc4N)nc4ccc(-c5ccccc5)nc43)cc2)C1` [Compound 161], the values for the IC50 in test [1] and in test [2] were 200 to 500 nM and below 500 nM, respectively.
For `Nc1ncccc1-c1nc2ccc(-c3ccccc3)nc2n1-c1ccc(NC(=O)c2ccc(C(=O)O)cc2)cc1` [Compound 53], in that order: below 50 nM and below 500 nM.
With `Nc1ncccc1-c1nc2ccc(-c3ccccc3)nc2n1-c1ccc(CNC(=O)c2cccc(CC(=O)O)c2)cn1` [Compound 49, 2-(3-(((6-(2-(2-aminopyridin-3-yl)-5-phenyl-3H-imidazo[4,5-b]pyridin-3-yl)pyridin-3-yl)methyl)carbamoyl)phenyl)acetic acid], the IC50 in test [1] and in test [2] was above 500 nM each time.
Turning to `Nc1ncccc1-c1nc2ccccc2n1-c1ccc(CNC(=O)c2cccc(CC(=O)O)c2)cc1` [Compound 108, 2-(3-((4-(2-(2-aminopyridin-3-yl)-1H-benzo[d]imidazol-1-yl)benzyl)carbamoyl)phenyl) acetic acid], the IC50 in test [1] and in test [2] was above 500 nM each time.
In the case of `Nc1ncccc1-c1nc2cc(-c3cccc(NC(=O)c4ccccc4)c3)cnc2n1-c1ccc(CNC(=O)c2cccc(CC(=O)O)c2)cc1` [Compound 85, 2-(3-((4-(2-(2-aminopyridin-3-yl)-6-(3-benzamidophenyl)-3H-imidazo[4,5-b]pyridin-3-yl)benzyl)carbamoyl)phenyl) acetic acid], the values for the IC50 in test [1] and in test [2] were 50 to 200 nM and below 500 nM, respectively.
In the same order, the values of `COC(=O)c1ccc([C@H](C)N2CC(c3ccc(-n4c(-c5cccnc5N)nc5ccc(-c6ccccc6)nc54)cc3)C2)cc1` (single isomer, unassigned) [Compound 158] are above 500 nM and below 500 nM.
In the same order, the values of `Nc1ncccc1-c1nc2ccc(-c3ccccc3)nc2n1-c1ccc(NC(=O)c2cc(F)c(C(=O)O)c(F)c2)nc1` [Compound 150] are below 50 nM and below 500 nM.
